From paper PMC12846677 (Viruses, 2025)
Like-named read-outs stand apart in the source and are kept apart here.

How the values were obtained:
HIV-1IIIB [1] = assay: Combined antiviral activity assay (p24 ELISA, CompuSyn); assay type: cell-based
HIV-1IIIB [2] = assay: qPCR determination of Late-RT, 2-LTR and Alu-LTR in infected C8166 cells; assay type: cell-based; conditions: for Late-RT level versus positive control (PC) group: C8166, HIV-1IIIB MOI 0.5, 100 nM ACC017, 4-8 h; for 2-LTR level (nuclear entry): C8166, HIV-1IIIB MOI 0.5, 100 nM ACC017, 8, 12, 24 h; for Alu-LTR level (integrated provirus): C8166, HIV-1IIIB MOI 0.5, 100 nM ACC017, 24 h, nested PCR
HIV-1WAN (CRF01_AE) = assay: microbe, parasite or virus in culture; conditions: Human immunodeficiency virus 1, PBMC
HIV-1IIIB [3] = assay: HIV-1IIIB-induced cytopathic effect (syncytia counting) in C8166 cells; conditions: Human immunodeficiency virus 1, C8166
[4] = Cytotoxicity MTT assay in MT4 cells; assay type: cell-based; conditions: human
NL4-3 = assay: microbe, parasite or virus in culture; assay type: cell-based; conditions: Human immunodeficiency virus 1, NL43; NL4-3, p24
HIV-1IIIB [5] = assay: microbe, parasite or virus in culture; assay type: cell-based; conditions: Human immunodeficiency virus 1, MT4, MTT
[6] = Cytotoxicity MTT assay in PBMCs; assay type: cell-based; conditions: human, peripheral blood mononuclear cells (PBMCs), PBMC
HIV-1TC-1 (CRF01_AE) = assay: microbe, parasite or virus in culture; conditions: Human immunodeficiency virus 1, PBMC
NL4-3IN-R263K = assay: microbe, parasite or virus in culture; assay type: cell-based; conditions: Human immunodeficiency virus 1
HIV-1_4755-5 = assay: microbe, parasite or virus in culture; conditions: Human immunodeficiency virus 1, C8166
HIV-1KIZ011 (CRF07_BC) = assay: microbe, parasite or virus in culture; conditions: Human immunodeficiency virus 1, PBMC
HIV-1A17 = assay: microbe, parasite or virus in culture; conditions: Human immunodeficiency virus 1, C8166
[7] = Cytotoxicity MTT assay in C8166 cells; assay type: cell-based; conditions: human
HIV-1DRACC017 = assay: microbe, parasite or virus in culture; assay type: cell-based; conditions: for EC50: Human immunodeficiency virus 1, HIV-1DRACC017, p24
HIV-1IIIB [8] = assay: microbe, parasite or virus in culture; conditions: Human immunodeficiency virus 1, C8166, HIV-1IIIB
[9] = tested on: pNL4-3gp41(36G) V38A, N42T; conditions: C8166, p24
[10] = p24 (Table 4, resistance study)

In the case of `CCn1c(C(=O)c2cc(C)cc(C#N)c2)c(C(C)C)c(=O)[nH]c1=O` [ACC007, Ainuovirine], the “DRI Value ED75” value (HIV-1IIIB [1]; combination ACC017 + ACC007) is reported as 3.77, the “DRI Value ED90” value (HIV-1IIIB [1]; combination ACC017 + ACC007) is reported as 6.12 and the “DRI Value ED95” value (HIV-1IIIB [1]; combination ACC017 + ACC007) is reported as 8.66. The “DRI Value ED75” value (HIV-1IIIB [1]; combination DTG + ACC007) was 4.66, the “DRI Value ED90” value (HIV-1IIIB [1]; combination DTG + ACC007) was 7.34 and the “DRI Value ED95” value (HIV-1IIIB [1]; combination DTG + ACC007) was 10.16.
With `CC(C)OC(=O)[C@H](C)N[P@](=O)(CO[C@H](C)Cn1cnc2c(N)ncnc21)Oc1ccccc1` [TAF, Tenofovir alafenamide] the “DRI Value ED75” value (HIV-1IIIB [1]; combination ACC017 + FTC + TAF) was 4.78, the “DRI Value ED90” value (HIV-1IIIB [1]; combination ACC017 + FTC + TAF) was 6.99 and the “DRI Value ED95” value (HIV-1IIIB [1]; combination ACC017 + FTC + TAF) was 8.96. The “DRI Value ED75” value (HIV-1IIIB [1]; combination DTG + FTC + TAF) was 4.40, the “DRI Value ED90” value (HIV-1IIIB [1]; combination DTG + FTC + TAF) was 6.33 and the “DRI Value ED95” value (HIV-1IIIB [1]; combination DTG + FTC + TAF) was 8.18.
For `C[C@@H]1CCO[C@H]2Cn3cc(C(=O)NCc4ccc(F)cc4F)c(=O)c(O)c3C(=O)N12` [DTG, Dolutegravir], the “Late-RT level versus positive control (PC) group” value (HIV-1IIIB [2]) was “no significant difference compared with the PC group”, the “2-LTR level (nuclear entry)” value (HIV-1IIIB [2]) was “unable to block the nuclear entry process” and the “Alu-LTR level (integrated provirus)” value (HIV-1IIIB [2]) was “significantly reduced”. It also gave an EC50 (HIV-1WAN (CRF01_AE)) of 8.23 ± 0.2 nM, an EC50 (HIV-1IIIB [3]) of 0.73 ± 0.02 nM and a CC50 at 3 d [4] of 24910 ± 10 nM. It also gave an EC50 (NL4-3) of 2.41 ± 0.43 nM, an EC50 (HIV-1IIIB [5]) of 0.05144 ± 0.00014 nM and a CC50 at 7 d [6] of 14600 nM. For the same molecule, the EC50 (HIV-1TC-1 (CRF01_AE)) was 0.31 ± 0.18 nM, the EC50 (NL4-3IN-R263K) was 32.2 ± 3.74 nM and the EC50 (HIV-1_4755-5) was 9.96 ± 2.78 nM. For the same molecule, the “DRI Value ED75” value (HIV-1IIIB [1]; combination ACC017 + DTG) was 1.40, the “DRI Value ED90” value (HIV-1IIIB [1]; combination ACC017 + DTG) was 1.40 and the “DRI Value ED95” value (HIV-1IIIB [1]; combination ACC017 + DTG) was 1.60. The “DRI Value ED75” value (HIV-1IIIB [1]; combination DTG + 3TC) was 3.00, the “DRI Value ED90” value (HIV-1IIIB [1]; combination DTG + 3TC) was 4.01 and the “DRI Value ED95” value (HIV-1IIIB [1]; combination DTG + 3TC) was 4.98. The “DRI Value ED75” value (HIV-1IIIB [1]; combination DTG + ACC007) was 3.00, the “DRI Value ED90” value (HIV-1IIIB [1]; combination DTG + ACC007) was 4.13 and the “DRI Value ED95” value (HIV-1IIIB [1]; combination DTG + ACC007) was 5.21. The “DRI Value ED75” value (HIV-1IIIB [1]; combination DTG + FTC + TAF) was 3.25, the “DRI Value ED90” value (HIV-1IIIB [1]; combination DTG + FTC + TAF) was 4.37 and the “DRI Value ED95” value (HIV-1IIIB [1]; combination DTG + FTC + TAF) was 5.41. For the same molecule, the EC50 (HIV-1KIZ011 (CRF07_BC)) was 0.28 ± 0.03 nM, the EC50 (HIV-1A17) was 4.78 ± 5.13 nM and the CC50 at 3 d [7] was 20340 ± 70 nM. For the same molecule, the EC50 (HIV-1DRACC017) was greater than 5000 nM, the EC50 (HIV-1IIIB [8]; C8166, p24 (Table 1)) was 0.64 ± 0.07 nM and the EC50 (HIV-1IIIB [8]; C8166, p24, 20% human serum) was 33.6 ± 5.9 nM. For the same molecule, the EC50 (HIV-1IIIB [8]; [10]) was 1.18 ± 0.15 nM and the EC50 [9] was 1.95 ± 0.12 nM.
With `O=C1Nc2ccc(Cl)cc2[C@@](C#CC2CC2)(C(F)(F)F)O1` [EFV, Efavirenz] the “Late-RT level versus positive control (PC) group” value (HIV-1IIIB [2]) was “significantly lower than that in the PC group”, the “2-LTR level (nuclear entry)” value (HIV-1IIIB [2]) was “barely detected” and the “Alu-LTR level (integrated provirus)” value (HIV-1IIIB [2]) was “almost undetectable”. For the same molecule, the EC50 (NL4-3) was 1.51 ± 0.48 nM, the EC50 (NL4-3IN-R263K; read-out: EC50) was 1.62 ± 0.31 nM and the EC50 (HIV-1DRACC017) was 1.24 ± 0.22 nM. For the same molecule, the “FC (Fold Change) EC50 (HIV-1DRACC017)/EC50 (HIV-1IIIB)” value (HIV-1DRACC017; p24) was 2.07 and the EC50 (HIV-1IIIB [8]; [10]) was 0.6 ± 0.18 nM.
